Results: patent US7981912B2, “Indole acetic acids exhibiting CRTH2 receptor antagonism and uses thereof” (Wyeth LLC, priority 2004, dated 2011)

molecular target: T1, human CRTH2 (Homo sapiens, UniProt Q9Y5Y4); assay: CRTH-2 binding assay (scintillation proximity assay, inhibition of 3H-PGD2 binding); parameters: expressed in transfected cells; host or cells: HEK 293EBNA-hCRTH2 (membrane preparation); conditions: inhibition of 3H-PGD2 (3.6 nM) binding to HEK 293EBNA-hCRTH2 membranes; Ki calculated from IC50
T1 sequence (Q9Y5Y4 1-395): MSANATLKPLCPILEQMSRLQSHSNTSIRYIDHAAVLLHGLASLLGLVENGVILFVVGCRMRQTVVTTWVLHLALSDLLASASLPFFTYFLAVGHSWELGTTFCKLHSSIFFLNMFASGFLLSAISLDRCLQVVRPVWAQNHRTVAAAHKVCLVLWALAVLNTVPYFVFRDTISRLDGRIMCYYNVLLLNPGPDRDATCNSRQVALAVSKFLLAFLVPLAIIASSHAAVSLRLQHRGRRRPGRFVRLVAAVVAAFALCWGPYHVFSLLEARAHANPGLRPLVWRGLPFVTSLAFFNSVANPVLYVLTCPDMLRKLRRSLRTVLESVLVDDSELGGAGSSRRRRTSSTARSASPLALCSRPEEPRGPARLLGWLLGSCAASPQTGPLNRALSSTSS
Experimental: A CRTH2 binding assay was developed to measure the ability of compounds to inhibit the binding of PGD2 to human CRTH2 using a scintillation proximity assay.
Membranes containing hCRTH2 receptors were prepared from HEK 293EBNA-hCRTH2 cells (a HEK 293EBNA cell line stably expressing human CRTH2). The cells were grown to confluency, harvested and washed with PBS. The cells were resuspended in 10 mM Hepes pH 7.4, 1 mM EDTA and protease inhibitors and incubated for 30 min on ice. The cells were homogenized and centrifuged for 10 min at 1000×g. The supernate was centrifuged for 30 min at 100,000×g and the membrane pellet was then resusupended in 10 mM Hepes pH 7.4 and 1 mM EDTA. The protein concentration of the membrane preparation was determined by Bradford assay (Bio-Rad).
The ability of compounds to inhibit the interaction of PGD2 to human CRTH2 was determined at seven compound concentrations. Compounds were serially diluted in DMSO then diluted into CRTH2 buffer without glycerol (10 mM Hepes pH 7.4, 1 mM EDTA, 10 mM MnCl2) to six times the final desired concentration. 20 μL of the diluted compounds were transferred into non-surface binding 96 well plates (Corning). Each concentration was done in triplicate. In addition to test compounds, each plate contained 12 control wells. Six of these wells contained 20 μL of CRTH2 buffer without glycerol. These wells were used to measure total binding. Six wells contained 20 μL of CRTH2 buffer without glycerol plus 1.5 mM indomethacin. These wells were used to measure non-specific binding. Next, HEK 293EBNA-hCRTH2 membranes were resuspended in CRTH2 buffer with glycerol (10 mM Hepes pH 7.4, 1 mM EDTA, 10 mM MnCl2, 25% glycerol) so that the final concentration was approximately 20 μg protein/100 μL. Polylysine coated yttrium silicate SPA beads (Amershamn) were added to the membrane mix to a concentration of 0.4 mg/100 μL and finally ^3H-PGD2 was added to the membrane/SPA bead mix to 3.6 nM. 100 μL of the membrane/SPA bead/^3H-PGD2 mix was added to each well of the non-surface binding plates containing the diluted compound plus controls. The plates were incubated for 2 hours at room temperature with shaking and then the plates were counted on a Microbeta scintillation counter (Perkin Elmer) for 1 min per well.
IC50 values were determined from the experimental results by nonlinear regression using Prism 4.0 software. The IC50 values were then used in conjunction with the […] for hCRTH2 and the ^3H-PGD2 concentration used in the experiment to calculate the Ki for each compound.

Row | Compound | Ki
1 | CCCCN1N=C(c2c(C)n(CC(=O)O)c3ccccc23)[C@H]2CC=CC[C@H]2C1=O (stereo in doubt) [Example 70, [3-(3-Butyl-4-oxo-3,4,4a,5,8,8a-hexahydro-phthalazin-1-yl)-2-methyl-indol-1-yl]-acetic acid] | < 1000 nM
2 | O=C(O)Cn1cc(C2NS(=O)(=O)c3ccccc32)c2ccccc21 (centres unmarked) [Example 1, [3-(1,1-Dioxo-2,3-dihydro-1λ^6-benzo[d]isothiazol-3-yl)-indol-1-yl]-acetic acid] | < 10000 nM
3 | Cc1ccc2c(c1)c(C1NS(=O)(=O)c3ccccc31)cn2CC(=O)O (centres unmarked) [Example 2, [3-(1,1-Dioxo-2,3-dihydro-1H-1λ^6-benzo[d]isothiazol-3-yl)-5-methyl-indol-1-yl]-acetic acid] | < 10000 nM
4 | O=C(O)Cn1cc(C2NS(=O)(=O)c3ccccc32)c2cc(Cl)ccc21 (centres unmarked) [Example 5, [5-Chloro-3-(1,1-dioxo-2,3-dihydro-1H-1λ^6-benzo[d]isothiazol-3-yl)-indol-1-yl]-acetic acid] | < 10000 nM
5 | Cc1c(C2NS(=O)(=O)c3ccccc32)c2cc(Cl)ccc2n1CC(=O)O (centres unmarked) [Example 6, [5-Chloro-3-(1,1-dioxo-2,3-dihydro-1H-1λ^6-benzo[d]isothiazol-3-yl)-2-methyl-indol-1-yl]-acetic acid] | < 1000 nM
6 | O=C(O)Cn1cc(C2NS(=O)(=O)c3ccccc32)c2cc(Br)ccc21 (centres unmarked) [Example 8, [5-Bromo-3-(1,1-dioxo-2,3-dihydro-1H-1λ^6-benzo[d]isothiazol-3-yl)-indol-1-yl]-acetic acid] | < 10000 nM
7 | Cc1c(C2NS(=O)(=O)c3ccccc32)c2cc(F)ccc2n1CC(=O)O (centres unmarked) [Example 10, [3-(1,1-Dioxo-2,3-dihydro-1H-1λ^6-benzo[d]isothiazol-3-yl)-5-fluoro-2-methyl-indol-1-yl]-acetic acid] | < 1000 nM
8 | CN1C(c2cn(CC(=O)O)c3ccccc23)c2ccccc2S1(=O)=O (centres unmarked) [Example 14, [3-(2-Methyl-1,1-dioxo-2,3-dihydro-1H-1λ^6-benzo[d]isothiazol-3-yl)-indol-1-yl]-acetic acid] | < 10000 nM
9 | O=C(O)Cn1cc(C2=NN(Cc3ccccc3)S(=O)(=O)c3ccccc32)c2ccccc21 [Example 17, [3-(2-Benzyl-1,1-dioxo-1,2-dihydro-1λ6-benzo[e][1,2,3]thiadiazin-4-yl)-indol-1-yl]-acetic acid] | < 1000 nM
10 | CN1N=C(c2cn(CC(=O)O)c3ccccc23)c2ccccc2S1(=O)=O [Example 18, [3-(2-Methyl-1,1-dioxo-1,2-dihydro-1λ6-benzo[e][1,2,3]thiadiazin-4-yl)-indol-1-yl]-acetic acid] | < 10000 nM
11 | Cc1c(C2=NN(CCC(C)C)S(=O)(=O)c3ccccc32)c2ccccc2n1CC(=O)O [Example 23, {2-Methyl-3-[2-(3-methyl-butyl)-1,1-dioxo-1,2-dihydro-1λ^6-benzo[e][1,2,3]thiadiazin-4-yl]-indol-1-yl}-acetic acid] | < 100 nM
12 | Cc1c(-c2nn(Cc3nc4ccccc4s3)c(=O)c3ccccc23)c2cc(Cl)ccc2n1CC(=O)O [Example 26, [3-(3-Benzothiazol-2-ylmethyl-4-oxo-3,4-dihydro-phthalazin-1-yl)-5-chloro-2-methyl-indol-1-yl]-acetic acid] | < 100 nM
13 | CC(C)CCN1C(c2cn(CC(=O)O)c3ccccc23)c2ccccc2S1(=O)=O (centres unmarked) [Example 29, {3-[2-(3-Methyl-butyl)-1,1-dioxo-2,3-dihydro-1H-1λ^6-benzo[d]isothiazol-3-yl]-indol-1-yl}-acetic acid] | < 10000 nM

Next, values leading:

Row | Ki | Compound
14 | < 100 nM | Cc1c(C2=NN(CCc3ccccc3)C(=O)[C@@H]3CC=CC[C@H]23)c2ccccc2n1CC(=O)O (stereo in doubt) [Example 72, [2-Methyl-3-(4-oxo-3-phenethyl-3,4,4a,5,8,8a-hexahydro-phthalazin-1-yl)-indol-1-yl]-acetic acid]
15 | < 10000 nM | Cc1c(C2NS(=O)(=O)c3ccccc32)c2ccccc2n1CC(=O)O (centres unmarked) [Example 3, [3-(1,1-Dioxo-2,3-dihydro-1H-1λ^6-benzo[d]isothiazol-3-yl)-2-methyl-indol-1-yl]-acetic acid]
16 | < 10000 nM | COc1ccc2c(c1)c(C1NS(=O)(=O)c3ccccc31)cn2CC(=O)O (centres unmarked) [Example 4, [3-(1,1-Dioxo-2,3-dihydro-1H-1λ^6-benzo[d]isothiazol-3-yl)-5-methoxy-indol-1-yl]-acetic acid]
17 | < 10000 nM | Cc1ccc2c(c1)c(C1NS(=O)(=O)c3ccccc31)c(C)n2CC(=O)O (centres unmarked) [Example 7, [3-(1,1-Dioxo-2,3-dihydro-1H-1λ^6-benzo[d]isothiazol-3-yl)-2,5-dimethyl-indol-1-yl]-acetic acid]
18 | < 10000 nM | N#Cc1ccc2c(c1)c(C1NS(=O)(=O)c3ccccc31)cn2CC(=O)O (centres unmarked) [Example 9, [5-Cyano-3-(1,1-dioxo-2,3-dihydro-1H-1λ^6-benzo[d]isothiazol-3-yl)-indol-1-yl]-acetic acid]
19 | < 1000 nM | O=C(O)Cn1cc(C2NS(=O)(=O)c3ccccc32)c2c(Cl)cccc21 (centres unmarked) [Example 11, [4-Chloro-3-(1,1-dioxo-2,3-dihydro-1H-1λ^6-benzo[d]isothiazol-3-yl)-indol-1-yl]-acetic acid]
20 | < 1000 nM | O=C(O)Cn1cc(C2NS(=O)(=O)c3ccccc32)c2ccc(Cl)cc21 (centres unmarked) [Example 12, [6-Chloro-3-(1,1-dioxo-2,3-dihydro-1H-1λ^6-benzo[d]isothiazol-3-yl)-indol-1-yl]-acetic acid]
21 | < 1000 nM | Cc1c(C2NS(=O)(=O)c3cc(F)ccc32)c2ccccc2n1CC(=O)O (centres unmarked) [Example 13, [3-(6-Fluoro-1,1-dioxo-2,3-dihydro-1H-1λ^6-benzo[d]isothiazol-3-yl)-2-methyl-indol-1-yl]-acetic acid]
22 | < 1000 nM | O=C(O)Cn1cc(-c2nn(Cc3ccccc3)c(=O)c3ccccc23)c2ccccc21 [Example 15, [3-(3-Benzyl-4-oxo-3,4-dihydro-phthalazin-1-yl)-indol-1-yl]-acetic acid]
23 | < 100 nM | Cc1c(C2=NN(CCc3ccccc3)S(=O)(=O)c3ccccc32)c2ccccc2n1CC(=O)O [Example 19, [3-(1,1-Dioxo-2-phenethyl-1,2-dihydro-1λ^6-benzo[e][1,2,3]thiadiazin-4-yl)-2-methyl-indol-1-yl]-acetic acid]
24 | > 10000 nM | CN1C(=O)c2ccccc2C1c1cn(CC(=O)O)c2ccccc12 (centres unmarked) [Example 20, [3-(2-Methyl-3-oxo-2,3-dihydro-1H-isoindol-1-yl)-indol-1-yl]-acetic acid]
25 | < 100 nM | Cc1c(-c2ccc(=O)n(Cc3ccccc3)n2)c2cc(Cl)ccc2n1CC(=O)O [Example 21, [3-(1-Benzyl-6-oxo-1,6-dihydro-pyridazin-3-yl)-5-chloro-2-methyl-indol-1-yl]-acetic acid]
26 | < 1000 nM | Cc1noc(C)c1CN1C(=O)c2ccccc2C1c1cn(CC(=O)O)c2ccccc12 (centres unmarked) [Example 22, {3-[2-(3,5-Dimethyl-isoxazol-4-ylmethyl)-3-oxo-2,3-dihydro-1H-isoindol-1-yl]-indol-1-yl}-acetic acid]
27 | < 100 nM | Cc1c(-c2nn(CCOc3ccc(Cl)cc3)c(=O)c3ccccc23)c2cc(Cl)ccc2n1CC(=O)O [Example 25, (5-Chloro-3-{3-[2-(4-chloro-phenoxy)-ethyl]-4-oxo-3,4-dihydro-phthalazin-1-yl}-2-methyl-indol-1-yl)-acetic acid]
28 | < 100 nM | Cc1c(-c2nn(CC3COc4ccccc4O3)c(=O)c3ccccc23)c2cc(Cl)ccc2n1CC(=O)O (centres unmarked) [Example 27, {5-Chloro-3-[3-(2,3-dihydro-benzo[1,4]dioxin-2-ylmethyl)-4-oxo-3,4-dihydro-phthalazin-1-yl]-2-methyl-indol-1-yl}-acetic acid]
29 | < 10000 nM | O=C(O)Cn1cc(C2c3ccccc3S(=O)(=O)N2Cc2ccccc2)c2ccccc21 (centres unmarked) [Example 28, [3-(2-Benzyl-1,1-dioxo-2,3-dihydro-1H-1λ^6-benzo[d]isothiazol-3-yl)-indol-1-yl]-acetic acid]
